Experimental data published in paper PMC10384440 (Viruses, 2023).
Like-named read-outs stand apart in the source and are kept apart here.

What was measured:
Type in all cases: cell-based
[1] = Cytotoxic effect on Huh-7 cells, cell viability assay with resazurin; settings: human
Huh-7 cells = test: as above; settings: for effect on cell viability at 100 µM: highest concentration evaluated
DENV-2 New Guinea = test: Antiviral screening: NS1 protein production in DENV-2 infected Huh-7 cells; settings: for effect on NS1 production vs viral control: DENV-2 infected Huh-7, 24 h, non-cytotoxic concentrations (between 40 and 100 µM); for NS1 production: DENV-2 infected Huh-7, MOI 1, 24 h, compounds at non-cytotoxic concentrations (between 40 and 100 µM), mycophenolic acid 20 µM, relative to viral control
[2] = system: DENV-2 subgenomic replicon in Huh-7 cells; test: NS5 protein production in Huh-7 DENV-2 replicon cells (ELISA)
DENV-2 = test: Viral RNA production of DENV-2 in infected Huh-7 cells (RT-qPCR); settings: 50 µM; DENV-2 infected Huh-7; normalized using GAPDH; vs viral control
[3] = Huh-7 cells, Huh-7 cell line, resazurin, read-out: CC50
[4] = Huh-7, all evaluated concentrations

O=C(Nc1ccc2c(c1)OCCO2)[C@@H]1CCCN1C(=O)[C@@H]1Cc2ccccc2CN1 [M76]
CC50 [1, 3]: > 100 µM | effect on cell viability at 100 µM (Huh-7 cells; Huh-7): no effect was observed | effect on NS1 production vs viral control (DENV-2 New Guinea): reduction in NS1 production

CC1(C)CC(NC(=O)C2Cc3c([nH]c4ccccc34)C3c4ccccc4C(=O)N23)CC(C)(C)N1 (stereo not drawn) [M78]
CC50 [1, 3]: 60.8 µM | viability ([1]; Huh-7 cells, Huh-7, at 12.5, 25, and 50 µM, read-out: cellular viability): ~100% | effect on cell viability at 100 µM (Huh-7 cells; Huh-7): loss of viability | effect on NS1 production vs viral control (DENV-2 New Guinea): reduction in NS1 production | NS1 production (DENV-2 New Guinea): ~38% | selectivity index (SI), CC50/IC50 ([2]; CC50 Huh-7 / IC50 NS5 production): 2.5 | IC50 ([2]; Dengue virus, DENV2, Huh-7 DENV-2 replicon, dose-response curve, 24 h): 24.6 µM | reduction of NS5 protein expression ([2]; Huh-7 DENV-2 replicon, 50 µM): 70% | NS5 production ([2]; Huh-7 DENV-2 replicon, 50 µM, 24 h, compared to VC (100%)): ~30% | reduction of DENV-2 viral RNA (relative expression, 2^−ΔΔCT) (DENV-2): 1.7 times

O=C(NCCc1c[nH]c2ccccc12)C1Cc2c([nH]c3ccccc23)C2c3ccccc3C(=O)N12 (stereo not drawn) [MR25]
CC50 [1, 3]: 70.6 µM | effect on NS1 production vs viral control (DENV-2 New Guinea): reduction in NS1 production | NS1 production (DENV-2 New Guinea): ~45%

O=C(NCCc1ccccc1F)C1Cc2c([nH]c3ccccc23)C2c3ccccc3C(=O)N12 (stereo not drawn) [MR41]
CC50 [1, 3]: > 100 µM | effect on cell viability at the evaluated concentrations (Huh-7 cells; [4]): no effect was evidenced | effect on NS1 production vs viral control (DENV-2 New Guinea): reduction in NS1 production

Cc1ccc(CNC(=O)C2Cc3c([nH]c4ccccc34)C3c4ccccc4C(=O)N23)cc1 (stereo not drawn) [MR94]
CC50 [1, 3]: 46.2 µM | effect on NS1 production vs viral control (DENV-2 New Guinea): except for treatment with MR94

Cc1cc(C)cc(NC(=O)C(NC(=O)N2CC3CC(C2)c2cccc(=O)n2C3)C(C)C)c1 (stereo not drawn) [R07]
CC50 ([1]; CC50): > 100 µM | effect on cell viability at the evaluated concentrations (Huh-7 cells): did not reduce cell viability | effect on NS1 production vs viral control (DENV-2 New Guinea): reduction in NS1 production

O=C(NCc1ccccc1)C1Cc2c([nH]c3ccccc23)C2c3ccccc3C(=O)N12 (stereo not drawn) [R32]
CC50 [1, 3]: > 100 µM | effect on cell viability at the evaluated concentrations (Huh-7 cells; [4]): did not reduce cell viability | effect on NS1 production vs viral control (DENV-2 New Guinea): reduction in NS1 production

O=C(NCCc1ccc(Cl)cc1)C1Cc2c([nH]c3ccccc23)C2c3ccccc3C(=O)N12 (stereo not drawn) [R53]
CC50 [1, 3]: 30 µM | effect on cell viability at the evaluated concentrations (Huh-7 cells; [4]): reduced cell viability

O=C(NCCc1ccccc1)C1Cc2c([nH]c3ccccc23)C2c3ccccc3C(=O)N12 (stereo not drawn) [R55]
CC50 [1, 3]: > 100 µM | effect on cell viability at the evaluated concentrations (Huh-7 cells; [4]): did not reduce cell viability | effect on NS1 production vs viral control (DENV-2 New Guinea): reduction in NS1 production

COc1c(C)c2c(c(O)c1C/C=C(\C)CCC(=O)O)C(=O)OC2 [mycophenolic acid, Mycophenolic acid, reference compound]
NS1 production (DENV-2 New Guinea): around 63%
